The record followed here is patent publication US20230357240A1, “NOVEL N-HETEROCYCLIC BET BROMODOMAIN INHIBITOR, AND PREPARATION METHOD THEREOF AND MEDICAL USE THEREOF” (Chengdu Easton Biopharmaceuticals Co., Ltd., priority 2020, published 2023).

Like-named read-outs stand apart in the source and are kept apart here.

For orientation: MRT means the average time that molecules of a dose stay in the body. Broadly, the Tmax is the time from dosing to the highest level.

This data set can be described thus: Pharmacokinetic test in SD rats (plasma drug concentration by LC/MS/MS). It is filed as in vivo. The settings on record: rat, 2 mg/kg; for AUC(0-t): read-out: Area under the curve AUClast; for half-life: read-out: Half life T1/2 (converted); for Cmax: read-out: Peak concentration Cmax; for MRT: read-out: Retention time MRT; for Tmax: read-out: Time to peak Tmax. As to the method: EXAMPLE 10 Pharmacokinetic Test of the Compound of the Present Application
SD rats were used as test animals. After gavage administration or tail vein injection of the compound of the present application to the rats, plasma drug concentrations were measured by the LC/MS/MS method at different moments, and pharmacokinetic features of the compound of the present application in the rats was studied.
Source of SD rats: Chengdu Dashuo Experimental Animal Co., Ltd.
Method of administration: single gavage administration and single tail vein injection
Dosage and concentration: 2 mg/kg rat body weight, 0.5 mg/mL
Formulation: 20% β-cyclodextrin solution
Sampling points: 5 min, 15 min, 30 min, 45 min, 1 h, 1.5 h, 2 h, 4 h, 5 h, 6 h, 7 h, 8 h, 9 h and 24 h
Standard curve preparation and sample treatment: 10 mg of the sample to be tested was accurately weighed and added into 1 mL of DMSO for dissolution, and the mixture was used as a stock solution. The stock solution was diluted with 50% (v/v) methanol aqueous solution to prepare standard working solutions having a concentration of 10, 20, 50, 100, 200, 500, 1000 and 2000 ng/mL, respectively. 5 μL of each of the standard working solutions was added to 45 μL of blank rat plasma to prepare standard samples containing the analyte at concentrations of 1.00, 2.00, 5.00, 10.00, 20.00, 50.00, 100.00 and 200.00 ng/mL, 200 μL of methanol (containing internal standard substance: 5 ng/mL memantine hydrochloride) was added to each standard sample, the standard samples were oscillated for 3 minutes and centrifuged at 12000 rpm at 4° C. for 10 minutes, and […] of the supernatant was collected for LC-MS/MS analysis. The test results were calculated by Analyst® software.
Preparation of quality control solution and sample treatment: 10 mg of the sample to be tested was accurately weighed and added into 1 mL of DMSO for dissolution, and the mixture was used as a stock solution. The stock solution was diluted with 50% (v/v) methanol aqueous solution to prepare quality control working solutions having a concentration of 30, 600 and 1600 ng/mL, respectively. 5 μL of each of the quality control working solutions was added to 45 μL of blank rat plasma to prepare quality control samples containing the analyte at concentrations of 3.00, 60.00 and 160.00 ng/mL, 200 μL of methanol (containing internal standard substance: 5 ng/mL memantine hydrochloride) was added to each standard sample, the standard samples were oscillated for 3 minutes and centrifuged at 12000 rpm at 4° C. for 10 minutes, and […] of the supernatant was collected for LC-MS/MS analysis. The test results were calculated by Analyst® software.

With `CCNC(=O)c1cc2c(-c3sc(C(C)(C)O)cc3N3CCc4ccccc43)cn(C)c(=O)c2[nH]1` [Compound 1, N-ethyl-4-(5-(2-hydroxypropyl-2-yl)-3-(indolin-1-yl)thiophen-2-yl)-6-methyl-7-oxo-6,7-dihydro-1H-pyrrolo[2,3-c]pyridine-2-carboxamide], for the setting “iv, tail vein injection”, the AUC(0-t) was 327 ng·h/mL, the half-life is 61.8 min, the Cmax was found to be 276 ng/mL and the MRT came out at 87 min. Further, the Tmax (iv, tail vein injection) came out at 4.8 min. Besides, under “po, gavage”, the AUC(0-t) came to 250 ng·h/mL, the half-life was 49.8 min, the Cmax is 143 ng/mL and the MRT worked out at 82.2 min. Further, the Tmax (po, gavage) amounted to 17.4 min.
